Results: PubChem BioAssay AID248 (DTP/NCI, 2004)
Toxic doses and inconclusive results are not listed. No stated cut-off is given here; in the data, active means T/C of 150% or more; inactive means T/C below 125%.

Tested on: L1210 leukemia ip in BDF1 mice, survival T/C
Assay: NCI In Vivo Anticancer Drug Screen. Data for tumor model L1210 Leukemia (intraperitoneal) in B6D2F1 (BDF1) mice
Conditions: endpoint: mean survival time, higher = longer survival
How it was run: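 Tumor was transplanted into mice, which were then dosed with test compound or vehicle alone. Survival was recorded for each group, and the treated figure was expressed relative to the control figure.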

[1] = dose: 100.0 mg/kg/injection, schedule: Q04DX002 (ip), vehicle: saline with Tween-80
[2] = dose: 400.0 mg/kg/injection, schedule: Q04DX002 (ip), vehicle: saline with Tween-80
[3] = dose: 100.0 mg/kg/injection, schedule: Q04DX003 (ip), vehicle: Klucel (hydroxypropylcellulose) (HPC)
[4] = dose: 200.0 mg/kg/injection, schedule: Q04DX003 (ip), vehicle: Klucel (hydroxypropylcellulose) (HPC)
[5] = dose: 400.0 mg/kg/injection, schedule: Q04DX003 (ip), vehicle: Klucel (hydroxypropylcellulose) (HPC)
[6] = dose: 100.0 mg/kg/injection, schedule: Q04DX003 (ip), vehicle: saline with Tween-80
[7] = dose: 200.0 mg/kg/injection, schedule: Q04DX003 (ip), vehicle: saline with Tween-80

Measured: T/C

CC(O)C(C)(O)C(=O)O (stereo unspecified)
inactive: dose: 100.0 mg/kg/injection, schedule: Q01DX009 (ip), vehicle: saline 100 % of control | dose: 100.0 mg/kg/injection, schedule: Q04DX003 (ip), vehicle: saline 104 % of control | dose: 200.0 mg/kg/injection, schedule: Q01DX009 (ip), vehicle: saline 90 % of control | dose: 200.0 mg/kg/injection, schedule: Q04DX003 (ip), vehicle: saline 95 % of control | dose: 400.0 mg/kg/injection, schedule: Q04DX003 (ip), vehicle: saline 101 % of control

CCS(=O)(=O)/C=C/c1ccc(NC(C)=O)cc1
inactive: [1] 122 % of control | dose: 200.0 mg/kg/injection, schedule: Q04DX002 (ip), vehicle: saline with Tween-80 98 % of control | [2] 91 % of control

N#C/C(=C\C1CCC(Cl)C(Cl)C1)C1CCC([N+](=O)[O-])CC1 (stereo unspecified)
inactive: [1] 91 % of control | [2] 91 % of control

COc1ccc(C(=O)CC(C#N)c2ccc3c(c2)OCO3)cc1OC (stereo unspecified)
inactive: dose: 100.0 mg/kg/injection, schedule: Q01DX009 (ip), vehicle: saline with Tween-80 94 % of control | dose: 200.0 mg/kg/injection, schedule: Q01DX009 (ip), vehicle: saline with Tween-80 94 % of control | dose: 400.0 mg/kg/injection, schedule: Q01DX009 (ip), vehicle: saline with Tween-80 96 % of control

Nc1nc(-c2ccccc2)c(CC(=O)O)s1
inactive: [3] 93 % of control | [4] 100 % of control | [5] 96 % of control

O=c1cc[nH]c2ccccc12
inactive: dose: 100.0 mg/kg/injection, schedule: Q01DX001 (ip), vehicle: saline with Tween-80 96 % of control | dose: 200.0 mg/kg/injection, schedule: Q01DX001 (ip), vehicle: saline with Tween-80 97 % of control | dose: 400.0 mg/kg/injection, schedule: Q01DX001 (ip), vehicle: saline with Tween-80 103 % of control

O=C(C=C(C(F)(F)F)C(F)(F)F)c1ccc(-c2ccccc2)cc1
inactive: dose: 25.0 mg/kg/injection, schedule: Q01DX009 (ip), vehicle: saline with Tween-80 98 % of control | dose: 50.0 mg/kg/injection, schedule: Q01DX009 (ip), vehicle: saline with Tween-80 98 % of control | dose: 50.0 mg/kg/injection, schedule: Q04DX003 (ip), vehicle: saline with Tween-80 92 % of control | [6] 87 % of control | [7] 86 % of control

c1ccc2c(c1)ccc1cc3cc4cc5c(ccc6ccccc65)cc4cc3cc12
inactive: dose: 50.0 mg/kg/injection, schedule: Q04DX002 (ip), vehicle: Klucel (hydroxypropylcellulose) (HPC) 93 % of control | dose: 200.0 mg/kg/injection, schedule: Q04DX002 (ip), vehicle: Klucel (hydroxypropylcellulose) (HPC) 90 % of control

C=C(C)C[N+]1(CC)CCN=C1CCCCCCCCCCCCCCCCC (stereo unspecified)
inactive: dose: 0.31 mg/kg/injection, schedule: Q01DX Z (ip), vehicle: saline 100 % of control | dose: 0.47 mg/kg/injection, schedule: Q01DX Z (ip), vehicle: saline 96 % of control | dose: 0.7 mg/kg/injection, schedule: Q01DX Z (ip), vehicle: saline 102 % of control | dose: 1.05 mg/kg/injection, schedule: Q01DX Z (ip), vehicle: saline 96 % of control

CCOC(=O)COc1ccc(Cl)cc1C(=O)OCC
inactive: dose: 100.0 mg/kg/injection, schedule: Q04DX002 (sc), vehicle: olive oil, sesame oil, peanut oil 105 % of control | dose: 200.0 mg/kg/injection, schedule: Q04DX002 (sc), vehicle: olive oil, sesame oil, peanut oil 118 % of control | dose: 400.0 mg/kg/injection, schedule: Q04DX002 (sc), vehicle: olive oil, sesame oil, peanut oil 111 % of control

O=C(NCCO)C1OCOC2C(CO)OCOC12 (stereo unspecified)
inactive: dose: 12.5 mg/kg/injection, schedule: Q04DX002 (ip), vehicle: saline 101 % of control | dose: 25.0 mg/kg/injection, schedule: Q04DX002 (ip), vehicle: saline 101 % of control | dose: 50.0 mg/kg/injection, schedule: Q04DX002 (ip), vehicle: saline 101 % of control | dose: 100.0 mg/kg/injection, schedule: Q04DX002 (ip), vehicle: saline 93 % of control

CC(=O)OC1CCCCCCCCC1OC(C)=O (stereo unspecified)
inactive: dose: 100.0 mg/kg/injection, schedule: Q01DX001 (ip), vehicle: carboxymethylcellulose (CMC) 103 % of control | dose: 200.0 mg/kg/injection, schedule: Q01DX001 (ip), vehicle: carboxymethylcellulose (CMC) 98 % of control | dose: 400.0 mg/kg/injection, schedule: Q01DX001 (ip), vehicle: carboxymethylcellulose (CMC) 95 % of control

O=[N+]([O-])c1cccc(OCCCOc2ccccc2)c1
inactive: dose: 100.0 mg/kg/injection, schedule: Q01DX009 (ip), vehicle: other 100 % of control | dose: 200.0 mg/kg/injection, schedule: Q01DX009 (ip), vehicle: other 92 % of control | dose: 400.0 mg/kg/injection, schedule: Q01DX009 (ip), vehicle: other 103 % of control

Nc1ccc2c(c1)Cc1ccccc1-2
inactive: [6] 101 % of control | [7] 101 % of control

CCOC(=O)Cc1cnc(SC)nc1N
inactive: [3] 95 % of control | [4] 94 % of control | [5] 87 % of control

O=[N+]([O-])c1ccc(N=Nc2c3ccccc3c(O)n2CO)c([N+](=O)[O-])c1
inactive: dose: 100.0 mg/kg/injection, schedule: Q01DX001 (ip), vehicle: saline 97 % of control | dose: 200.0 mg/kg/injection, schedule: Q01DX001 (ip), vehicle: saline 97 % of control | dose: 400.0 mg/kg/injection, schedule: Q01DX001 (ip), vehicle: saline 98 % of control
